Laboratory results: patent publication US6642264B1, “Thiazolobenzoimidazole derivatives” (Yamanouchi Pharmaceutical Co., Ltd., priority 1999, dated 2003)
Counter-ions that a name gives are not always drawn.

How the values were obtained:
mGluR1 α = target: T1, mGluR1 α (Rattus norvegicus, UniProt P23385); assay: phosphatidylinositol (PI) hydrolysis system using mGluR1 α expression cells; assay type: cell-based; settings: read-out: IC50, inhibition of the reaction of glutamic acid in PI hydrolysis system
T1 construct: expressed in transfected cells
T1 sequence (P23385 19-1199): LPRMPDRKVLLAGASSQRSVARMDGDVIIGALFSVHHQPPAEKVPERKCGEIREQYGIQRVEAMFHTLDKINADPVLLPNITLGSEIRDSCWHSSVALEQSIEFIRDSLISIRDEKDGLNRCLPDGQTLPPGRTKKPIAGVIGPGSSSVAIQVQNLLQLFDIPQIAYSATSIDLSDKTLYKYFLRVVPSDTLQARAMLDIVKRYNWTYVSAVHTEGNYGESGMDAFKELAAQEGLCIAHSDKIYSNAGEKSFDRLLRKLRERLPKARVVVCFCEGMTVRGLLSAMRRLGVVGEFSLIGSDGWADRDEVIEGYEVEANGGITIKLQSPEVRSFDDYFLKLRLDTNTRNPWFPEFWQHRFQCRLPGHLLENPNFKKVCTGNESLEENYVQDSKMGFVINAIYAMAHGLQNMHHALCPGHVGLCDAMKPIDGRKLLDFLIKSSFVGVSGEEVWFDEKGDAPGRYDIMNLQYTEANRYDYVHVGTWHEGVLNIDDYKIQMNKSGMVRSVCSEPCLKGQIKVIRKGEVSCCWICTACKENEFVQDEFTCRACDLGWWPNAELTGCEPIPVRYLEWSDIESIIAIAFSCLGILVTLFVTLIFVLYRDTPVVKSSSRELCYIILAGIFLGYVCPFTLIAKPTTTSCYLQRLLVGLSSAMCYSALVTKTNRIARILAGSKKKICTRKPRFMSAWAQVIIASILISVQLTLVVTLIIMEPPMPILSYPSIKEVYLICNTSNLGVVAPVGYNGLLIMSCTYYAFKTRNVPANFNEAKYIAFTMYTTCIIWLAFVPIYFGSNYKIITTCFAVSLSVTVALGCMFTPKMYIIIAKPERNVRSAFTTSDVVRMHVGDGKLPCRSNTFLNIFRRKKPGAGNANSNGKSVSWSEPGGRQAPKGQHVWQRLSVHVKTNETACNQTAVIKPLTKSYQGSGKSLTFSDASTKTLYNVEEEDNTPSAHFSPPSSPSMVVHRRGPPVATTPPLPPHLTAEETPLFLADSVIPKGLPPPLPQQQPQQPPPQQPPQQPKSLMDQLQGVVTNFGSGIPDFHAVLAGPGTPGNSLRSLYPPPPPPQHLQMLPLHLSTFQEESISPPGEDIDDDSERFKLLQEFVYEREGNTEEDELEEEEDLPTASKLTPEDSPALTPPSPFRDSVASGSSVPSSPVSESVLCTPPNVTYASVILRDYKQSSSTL

mGluR1 = target: T2, mGluR1 (Rattus norvegicus, UniProt P23385); assay: mGluR1 binding test with tritium-labeled ligand on rat cerebellum P2 membrane fraction
T2 construct: from tissue; host or cells: rat (Wistar) cerebellum P2 membrane fraction
T2 sequence (P23385 19-1199): as above
Method: Rats (Wistar, males, 9 to 12 weeks of age) were decapitated to excise cerebella. After weight measurement, they were homogenized in 7 to 10 volumes of 0.32 M sucrose solution. After 15 minutes of centrifugation at 900×g, the supernatant was preserved in a container (in ice). The precipitate was again homogenized in 0.32 M sucrose solution of the same volume of the first time and centrifuged at 900×g for 15 minutes. The supernatant obtained this time was combined with the previously obtained supernatant and centrifuged at 15,000×g for 20 minutes. The precipitate was homogenized in 5 mM Tris-HCl, pH 7.4, and centrifuged at 15,000×g for 15 minutes. This step was repeated again. The precipitate was homogenized in 50 mM Tris-HCl, pH 7.4, and centrifuged at 15,000×g for 15 minutes. The precipitate was homogenized in an appropriate amount of 50 mM Tris-HCl, pH 7.4, subdivided into small portions and then preserved at −80° C.
The binding test was carried out by the following modified method of Thomsen et al.
As the assay buffer, 50 mM Tris-HCl, 2.5 mM CaCl2, pH 7.4, was used. […] Quantity of the radioactivity was measured using a liquid scintillation counter. […]

CN(C(=O)c1cn2c(nc3ccc(NC(=O)CN)cc32)s1)C1CCCCC1 [Example 41, N-Cyclohexyl-6-glycylamino-N-methylthiazolo[3,2-a]benzoimidazole-2-carboxamide dihydrochloride]
IC50 (mGluR1 α): 20 nM

[3H]C([3H])([3H])N(C(=O)c1sc2nc3ccc(N)cc3n2c1C)C1CCCCC1 [[^3H]-6-Amino-N-cyclohexyl-N,3-dimethylthiazolo[3,2-a]benzoimidazole-2-carboxamide]
Bmax in the saturation test (mGluR1): 3.9 pmol/mg protein
Kd (mGluR1; room temperature, 45 minutes, read-out: KD value in the saturation test): 47 nM
